≈ marks a conversion by molar mass, not a printed value. Where only a bound is given, the exact number is not on record here.

For the first assay, the system named is K. pneumoniae TK1401. In words: Antimicrobial susceptibility testing, MicroScan WalkAway apparatus. The assay is classed as cell-based, Klebsiella pneumoniae. The following applies: K. pneumoniae isolate TK1401; MicroScan WalkAway; CLSI M100-S24 breakpoints. The procedure: (§1) Testing was performed using a MicroScan WalkAway apparatus (Beckman Coulter, Brea, Calif., USA). The minimal inhibitory concentration (MIC) of colistin was confirmed using the Etest (bioMérieux, Marcy l'Etoile, France) and the broth microdilution method. Antimicrobial susceptibility was defined according to breakpoints listed in the Clinical and Laboratory Standards Institute (CLSI) guidelines (M100-S24).
In the case of `CO[C@@]1(NC(=O)CSCC#N)C(=O)N2C(C(=O)O)=C(CSc3nnnn3C)CS[C@@H]21` [Cefmerazole], the Minimum inhibitory concentration was more than 32 µg/mL. In turn, `CO/N=C(\C(=O)N[C@@H]1C(=O)N2C(C(=O)O)=C(COC(C)=O)CS[C@H]12)c1csc(N)n1` [Cefotaxim] had a Minimum inhibitory concentration of more than 2 µg/mL. On to Gentamicin, for which the Minimum inhibitory concentration is more than 8 µg/mL.

The assay is the same for the next values; noted with them: Klebsiella pneumoniae; K. pneumoniae isolate TK1401; MicroScan WalkAway; CLSI M100-S24 breakpoints; read-out: Minimum inhibitory concentration.
`NCC[C@H](O)C(=O)N[C@@H]1C[C@H](N)[C@@H](O[C@H]2O[C@H](CN)[C@@H](O)[C@H](O)[C@H]2O)[C@H](O)[C@H]1O[C@H]1O[C@H](CO)[C@@H](O)[C@H](N)[C@H]1O` [Amikacin]: the MIC is more than 32 µg/mL. For the compound `CC1(C)S[C@@H]2[C@H](NC(=O)[C@H](N)c3ccc(O)cc3)C(=O)N2[C@H]1C(=O)O` [Amoxicillin], the MIC was more than 16 µg/mL. For the compound `CC1(C)S[C@@H]2[C@H](NC(=O)[C@H](N)c3ccccc3)C(=O)N2[C@H]1C(=O)O` [Ampicillin], the MIC was more than 16 µg/mL. Take `N[C@@H](C(=O)N[C@@H]1C(=O)N2C(C(=O)O)=C(Cl)CS[C@H]12)c1ccccc1` [Cefaclor]: the MIC is more than 16 µg/mL. The same measure, in the same setting: for `Cc1nnc(SCC2=C(C(=O)O)N3C(=O)[C@@H](NC(=O)Cn4cnnn4)[C@H]3SC2)s1` [Cefazolin] the value was more than 16 µg/mL; for `C=CC1=C(C(=O)O)N2C(=O)[C@@H](NC(=O)/C(=N\O)c3csc(N)n3)[C@H]2SC1` [Cefdinir], more than 2 µg/mL. For the compound `CO/N=C(\C(=O)N[C@@H]1C(=O)N2C(C(=O)[O-])=C(C[N+]3(C)CCCC3)CS[C@H]12)c1csc(N)n1` [Cefepime], the MIC is more than 2 µg/mL. `CN(C)CCn1nnnc1SCC1=C(C(=O)O)N2C(=O)[C@@H](NC(=O)Cc3csc(N)n3)[C@H]2SC1` [Cefotiam]: the MIC was more than 16 µg/mL. The same measure, in the same setting: for `CO/N=C(\C(=O)N[C@@H]1C(=O)N2C(C(=O)[O-])=C(C[n+]3ccn4ncccc43)CS[C@H]12)c1nsc(N)n1` [Cefozopran] the value was more than 16 µg/mL; for `COCC1=C(C(=O)O)N2C(=O)[C@@H](NC(=O)/C(=N\OC)c3csc(N)n3)[C@H]2SC1` [Cefpodoxime], more than 4 µg/mL.

Turning to `CC(C)(O/N=C(\C(=O)N[C@@H]1C(=O)N2C(C(=O)[O-])=C(C[n+]3ccccc3)CS[C@H]12)c1csc(N)n1)C(=O)O` [Ceftazidime], the MIC is more than 16 µg/mL. The same measure, in the same setting: for `CO/N=C(\C(=O)N[C@@H]1C(=O)N2C(C(=O)O)=C(CSc3nc(=O)c(=O)[nH]n3C)CS[C@H]12)c1csc(N)n1` [Ceftriaxone] the value was more than 16 µg/mL; for `C[C@@H](O)[C@H]1C(=O)N2C(C(=O)O)=C(S[C@@H]3CN[C@H](CNS(N)(=O)=O)C3)[C@H](C)[C@H]12` [Doripenem], more than 8 µg/mL. With `CO[C@@]1(NC(=O)CSC(F)F)C(=O)N2C(C(=O)O)=C(CSc3nnnn3CCO)CO[C@@H]21` [Flomoxef], the MIC was more than 32 µg/mL. For `C[C@@H](O)[C@H]1C(=O)N2C(C(=O)O)=C(SCCN=CN)C[C@H]12` [Imipenem], the MIC was more than 8 µg/mL. With `C[C@H]1COc2c(N3CCN(C)CC3)c(F)cc3c(=O)c(C(=O)O)cn1c23` [Levofloxacin], the MIC is more than 4 µg/mL. For the compound `C[C@@H](O)[C@H]1C(=O)N2C(C(=O)O)=C(S[C@@H]3CN[C@H](C(=O)N(C)C)C3)[C@H](C)[C@H]12` [Meropenem], the MIC is more than 8 µg/mL. `CCN1CCN(C(=O)N[C@@H](C(=O)N[C@@H]2C(=O)N3[C@@H]2SC(C)(C)[C@@H]3C(=O)O)c2ccccc2)C(=O)C1=O` [Piperacillin]: the MIC was more than 64 µg/mL. `NC[C@H]1O[C@H](O[C@H]2[C@H](O)[C@@H](O[C@H]3O[C@H](CO)[C@@H](O)[C@H](N)[C@H]3O)[C@H](N)C[C@@H]2N)[C@H](N)C[C@@H]1O` [Tobramycin]: the MIC is more than 8 µg/mL.

Staying with this assay, now noted: breakpoints of CLSI guidelines M100-S24.
`C[C@@H]1O[C@@H]1P(=O)(O)O` [Fosfomycin]: the “Antimicrobial susceptibility of the isolate (in words)” value is “not susceptible”.

In a further assay the test system is K. pneumoniae TK1401. The experiment in a line: Antimicrobial susceptibility testing, broth microdilution method. Format: cell-based, Klebsiella pneumoniae. The following applies: K. pneumoniae isolate TK1401; broth microdilution method (footnote b). On the procedure:
as §1
On the technique in general: Broth dilution looks for growth in wells or tubes with falling amounts of substance.
Colistin registered a Minimum inhibitory concentration of 64 µg/mL. In the case of Polymyxin B, the Minimum inhibitory concentration was 64 µg/mL.

Staying with this assay, now noted: Klebsiella pneumoniae, TK1401, read-out: Minimum inhibitory concentration.
Consider `CN(C)c1cc(NC(=O)CNC(C)(C)C)c(O)c2c1C[C@H]1C[C@H]3[C@H](N(C)C)C(O)=C(C(N)=O)C(=O)[C@@]3(O)C(O)=C1C2=O` [Tigecycline], for which the MIC was 16 µg/mL (≈ 27.3 µM).

The assay is the same for the next values; noted with them: Klebsiella pneumoniae; K. pneumoniae isolate TK1401; broth microdilution method (footnote b); read-out: Minimum inhibitory concentration.
Regarding `NCC[C@H](O)C(=O)N[C@@H]1C[C@H](N)[C@@H](O[C@H]2O[C@H](CN)CC[C@H]2N)[C@H](O)[C@H]1O[C@H]1O[C@H](CO)[C@@H](O)[C@H](N)[C@H]1O` [Arbekacin], the MIC was more than 256 µg/mL. `O=C(N[C@H](CO)[C@H](O)c1ccc([N+](=O)[O-])cc1)C(Cl)Cl` [Chloramphenicol]: the MIC was more than 256 µg/mL. The same measure, in the same setting: the result for `C[C@@H]1O[C@@H]1P(=O)(O)O` [Fosfomycin] reads more than 256 µg/mL; that for `CN(C)c1ccc(O)c2c1C[C@H]1C[C@H]3[C@H](N(C)C)C(O)=C(C(N)=O)C(=O)[C@@]3(O)C(O)=C1C2=O` [Minocycline], 256 µg/mL (≈ 560 µM).

(Values after patent US20220098646A1, “DETECTION METHOD OF PAN-RESISTANT K. PNEUMONIAE, SCREENING METHOD OF ANTIMICROBIAL AGENTS, AND RECORDING MEDIA AND DATABASE” (TEIKYO UNIVERSITY, priority 2019, published 2022).)
